{
  "source": "patent US20090074716A1",
  "about": "“METHOD FOR TREATING INFLUENZA VIRUS INFECTION” (priority 2006, published 2009)",
  "key": {"[1]": {"test_system": "avian influenza virus A/FPV/Bratislava/79 (H7N7)", "format": "cell-based, human A549 lung epithelium carcinoma cells"}, "IκBα [2]": {"test_system": "IκBα", "assay": "TNFα-induced IκBα degradation (NF-κB activation), Western blot, A549 cells", "format": "cell-based, human", "conditions": "1 h pre-incubation, 15 min TNFα"}, "IκBα [3]": {"test_system": "IκBα", "assay": "TNFα-induced IκBα degradation (NF-κB activation), Western blot, HEK293 cells", "format": "cell-based", "conditions": "1 h pre-incubation, 15 min TNFα"}, "[4]": {"conditions": "after intravenous application; cited from earlier work"}, "[5]": {"test_system": "avian influenza A virus A/FPV/Bratislava/79", "format": "cell-based, human lung epithelium cell line A549"}, "TRAIL and FasL/CD95L": {"test_system": "TRAIL and FasL/CD95L", "format": "cell-based, human"}, "[6]": {"test_system": "avian influenza A virus A/FPV/Bratislava/79", "design": "species or system C57B1/6 mice", "conditions": "mouse, in vivo"}, "26S proteasome": {"test_system": "26S proteasome", "conditions": "cited from earlier work"}},
  "note": "Entries after “also recorded” stand apart in the source; their conditions may differ. Where a SMILES comes first, the peptide text is derived from it. The star is where a group is joined. Cbz = O=C(OCc1ccccc1)*",
  "data": [
    {"compound": "CC(=O)N[C@@H](CSC(=O)[C@]1([C@@H](O)C(C)C)NC(=O)[C@H](C)[C@@H]1O)C(=O)O", "note": "[lactacysteine]", "values": [
      {"measurement": "reduction of the virus titre", "setting": "[1]", "value": "reduction"},
      {"measurement": "blocking of TNFα-induced IκBα-degradation", "setting": "IκBα [2]; 1 μM", "value": "not effective enough to block"},
      {"measurement": "blocking of TNFα-induced IκBα-degradation", "setting": "IκBα [3]; 1 μM", "value": "not effective enough to block"}
    ]},
    {"compound": "CC(C)C[C@H](NC(=O)[C@H](Cc1ccccc1)NC(=O)c1cnccn1)B(O)O", "note": "[PS341, pyranosyl-phenyl-leucinyl-boric acid]", "values": [
      {"measurement": "reduction of the virus titre", "setting": "[1]", "value": "over 2 logarithmic levels"},
      {"measurement": "prevention of TNFα-induced IκBα-degradation", "setting": "IκBα [2]; 100 nM", "value": "not in a position to prevent"},
      {"measurement": "prevention of TNFα-induced IκBα-degradation", "setting": "IκBα [3]; 100 nM", "value": "not in a position to prevent"},
      {"measurement": "biological availability", "setting": "[4]", "value": "biologically available"}
    ]},
    {"compound": "CC(C)C[C@@H](C=O)NC(=O)[C@H](CC(C)C)NC(=O)[C@H](CC(C)C)NC(=O)OCc1ccccc1", "note": "[MG132, N-carbobenzoxy-L-leucinyl-L-leucinyl-L-leucinal] (Cbz-Leu-Leu-Leu-aldehyde)", "values": [
      {"measurement": "influenza virus replication", "setting": "[5]", "value": "blocks"},
      {"measurement": "reduction of the virus titre", "setting": "[5]", "value": "up to 10 times"},
      {"measurement": "virus-induced expression of FasL", "setting": "TRAIL and FasL/CD95L", "value": "clearly reduced; also recorded: blocks"},
      {"measurement": "virus-induced expression of TRAIL", "setting": "TRAIL and FasL/CD95L", "value": "clearly reduced; also recorded: blocks"},
      {"measurement": "survival rate of infected mice versus untreated controls", "setting": "[6]", "value": "significantly increased"}
    ]},
    {"compound": "CC(C)c1nc(CN(C)C(=O)N[C@H](C(=O)N[C@@H](Cc2ccccc2)C[C@H](O)[C@H](Cc2ccccc2)NC(=O)OCc2cncs2)C(C)C)cs1", "note": "[Ritonavir]", "values": [
      {"measurement": "concentration with unspecific effect on the proteasome", "setting": "26S proteasome", "value": "approx. 10 micrograms"}
    ]}
  ]
}
